# Test results taken from patent publication US4140769A, “3-Substituted salicylamides” (Miles Laboratories, Inc., priority 1978, dated 1979).
# Where a name gives a salt, the structure may show the parent alone. Read-outs that look alike come from different tables or passages of the source.
# Assays:
# [1] = test system: abdominal constriction response; assay: abdominal constriction response (analgesic activity, acetylcholine chloride-induced, s.c. dosing); assay type: in vivo, mice; details: for ED50: Mus musculus, sc; for analgesic activity, in words: Table II conclusions and summary; for ED50 / potency, in words: compared with control compound, other examples; for analgesic activity (no activity): at 20 mg/kg, hydrochloride
# Procedure: The analgesic activity of the compounds of the present invention was tested in mice by means of the "abdominal constriction" response. The test is based on the observation that following interperitoneal injection of a noxious agent, such as acetylcholine chloride, mice show a response which consists of a wave of constriction and elongation passing caudally along the abdominal wall, sometimes accompanied by twisting of the trunk and followed by extension of the hind limbs. […] Non-fasted female mice, weighing between 20 and 25 g, were used in the studies. […] The animals were then placed in a circular glass enclosure and the number of responses counted during a given time period. Compounds completely inhibiting the response to acetycholine in at least five out of ten animals were subsequently tested at reduced dosage levels, using groups of ten animals per dose. The dose required to produce a specified response, that is, analgesic effect, is termed the individual effective dose; the response is a quantal rather than a graded response, since it is either present or absent. The cumulative frequency distribution of individual effective doses obtained, plotted as a function of logarithm of dose, is known as a dose-percent or dose-response curve. The ED50 and ED90 is then calculated from the dose-response curve obtained in the above experiments. […] The expression ED90 indicates the amount of compound required to produce an analgesic effect in 90 percent of animals tested.
# [2] = test system: abdominal constriction response; assay: duration of analgesic activity (abdominal constriction response, time for 50 percent decay of the analgesic effect of the ED90 dosage); assay type: in vivo, mice; details: for Duration of Activity 1/2 T: time to 50 percent decay of analgesic effect, pharmacologically equipotent doses, based on ED90 dosages; for increase in duration of activity versus unsubstituted control compound (factor): in comparison to the unsubstituted control compound
# Procedure: The analgesic activity of the compounds of the present invention was tested in mice by means of the "abdominal constriction" response. The test is based on the observation that following interperitoneal injection of a noxious agent, such as acetylcholine chloride, mice show a response which consists of a wave of constriction and elongation passing caudally along the abdominal wall, sometimes accompanied by twisting of the trunk and followed by extension of the hind limbs. […] Non-fasted female mice, weighing between 20 and 25 g, were used in the studies. […] The animals were then placed in a circular glass enclosure and the number of responses counted during a given time period.
# [3] = subcutaneous, 10 min before i.p. acetylcholine chloride (3.2 mg/kg), mice, read-out: ED50
Compound,"ED50 [1, 3]","ED50 / potency, in words [1]",Duration of Activity 1/2 T [2],other results
"CCN(CC)CCNC(=O)c1ccccc1O.Cl [Control, N-(2-diethylaminoethyl)salicylamide hydrochloride, reference compound]",16.6 mg/kg,–,–,"analgesic activity, in words ([1]; mice): exhibited analgesic activity"
"CCN(CC)CCNC(=O)c1cccc(C(C)C)c1O [Example 1, N-(2-diethylaminoethyl)-3-isopropylsalicylamide hydrochloride]",12.7 mg/kg,substantially at the same potency as that of the control compound,80 min,–
"CCN(CC)CCNC(=O)c1cccc(C)c1O [Example 2, N-(2-diethylaminoethyl)-3-methylsalicylamide hydrochloride]",–,fairly low ED50,< 40 min,"ED50 [1]: 14.2 mg/kg; analgesic activity, in words ([1]; mice): exhibited analgesic activity; duration of analgesic activity, in words ([2]; compared with control or prior art compounds): no meaningful increase in the duration of analgesic activity"
"CCCCCCCCc1cccc(C(=O)NCCN(CC)CC)c1O [Example 3, N-(2-diethylaminoethyl)-3-n-octylsalicylamide hydrochloride]",–,–,–,analgesic activity (no activity) [1]: no activity; analgesic activity (no activity) ([1]; listed as n-octyl): no analgesic activity
"CCCCc1cccc(C(=O)NCCN(CC)CC)c1O [Example 4, N-(2-diethylaminoethyl)-3-n-butylsalicylamide oxalate]",31 mg/kg,less active analgesics than the other examples and the control sample,125 min,increase in duration of activity versus unsubstituted control compound (factor) [2]: greater than 5 fold
"CCN(CC)CCNC(=O)c1cccc(CC(C)C)c1O [Example 5, N-(2-diethylaminoethyl)-3-isobutylsalicylamide hydrochloride]",44.5 mg/kg,–,205 min,increase in duration of activity versus unsubstituted control compound (factor) [2]: greater than 5 fold
"CCN(CC)CCNC(=O)c1cccc(C(C)(C)C)c1O [Example 6, N-(2-diethylaminoethyl)-3-t-butylsalicylamide hydrochloride]",14.3 mg/kg,substantially at the same potency as that of the control compound,120 min,–
"CCN(CC)CCNC(=O)c1cccc(C(C)(C)CC)c1O [Example 7, N-(2-diethylaminoethyl)-3-t-amylsalicylamide hydrochloride]",–,–,–,analgesic activity (no activity) [1]: no activity; analgesic activity (no activity) ([1]; listed as amyl): no analgesic activity
"C=CCc1cccc(C(=O)NCCN(CC)CC)c1O [Example 8, N-(2-diethylaminoethyl)-3-allylsalicylamide oxalate]",17.2 mg/kg,–,80 min,–
"C=C(C)Cc1cccc(C(=O)NCCN(CC)CC)c1O [Example 9, N-(2-diethylaminoethyl)-3-methallylsalicylamide oxalate]",23.8 mg/kg,substantially at the same potency as that of the control compound,60 min,–
"CCN(CC)CCNC(=O)c1cccc(Cl)c1O [Example 10, N-(2-diethylaminoethyl)-3-chlorosalicylamide hydrochloride]",–,–,–,analgesic activity (no activity) [1]: no activity; analgesic activity (no activity) ([1]; listed as 3-chloro): no analgesic activity
